The values that follow come from ChEMBL document CHEMBL1141635, “Novel GSK-3beta inhibitors from sequential virtual screening” (Bioorg Med Chem, 2008).

The test deals with Glycogen synthase kinase-3 beta (Homo sapiens) (UniProt P49841). Briefly: Inhibition of human GSK3-beta assessed as remaining enzyme activity at 10 uM.
Chain of Glycogen synthase kinase-3 beta (Homo sapiens) (P49841 whole entry, looked up): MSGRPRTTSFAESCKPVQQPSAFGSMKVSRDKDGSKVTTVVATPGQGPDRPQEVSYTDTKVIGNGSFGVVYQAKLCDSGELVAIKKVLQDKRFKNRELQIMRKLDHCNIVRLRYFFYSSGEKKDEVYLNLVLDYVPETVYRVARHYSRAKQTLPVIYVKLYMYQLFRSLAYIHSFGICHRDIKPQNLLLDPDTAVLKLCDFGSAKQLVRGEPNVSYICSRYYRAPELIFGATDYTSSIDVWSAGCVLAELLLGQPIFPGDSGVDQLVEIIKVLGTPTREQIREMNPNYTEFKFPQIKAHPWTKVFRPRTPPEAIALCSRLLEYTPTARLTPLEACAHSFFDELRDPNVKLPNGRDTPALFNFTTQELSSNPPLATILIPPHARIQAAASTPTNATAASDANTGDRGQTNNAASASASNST
Regarding `CCCNc1nc2ccccn2c(=O)c1/C=C1\SC(=S)NC1=O`, the Activity amounted to 95%.
Under `O=C1NC(=O)/C(=C/c2ccc(-c3cc([N+](=O)[O-])ccc3Cl)o2)S1` stands 8%.
As for `Cc1cc(/C=C2\SC(=S)NC2=O)c(C)n1-c1cccc([N+](=O)[O-])c1`, the Activity amounted to 41%.
In the case of `CCOc1cc(C=C2C(=O)NC(=S)NC2=O)cc(I)c1OC`, the Activity was found to be 58%.
Under `COc1cc(/C=C2\SC(=S)NC2=O)cc(Br)c1OCc1ccccc1C` stands 6%; under `COc1ccc(-c2ccc(/C=C3\SC(=S)NC3=O)o2)c([N+](=O)[O-])c1`, 5%; under `Cc1ccc(/N=C2/NC(=O)S/C2=C\c2ccccc2Cl)cc1`, 18%.
Regarding `O=C1NC(=S)S/C1=C\c1ccc(O)c([N+](=O)[O-])c1`, the Activity came to 7%.
Under `COc1ccc2c(c1)/C(=C1/SC(=S)NC1=O)C(=O)N2` stands 84%.
For the compound `Cc1ccc(S(=O)(=O)n2cc(/C=C3\SC(=S)NC3=O)c3ccccc32)cc1`, the Activity turned out to be 67%.
As for `CC1=NCCNC2=C1[C@H](c1ccc(F)cc1)N(c1ccccn1)C2=O`, the Activity was 99%.
Turning to `O=C1NC(=S)S/C1=C\c1ccccc1OS(=O)(=O)c1ccccc1[N+](=O)[O-]`, the Activity stood at 14%.
Under `O=C1CC(C(F)(F)F)=NC(Sc2c(-c3ccccc3)c3cc([N+](=O)[O-])ccc3[nH]c2=O)=N1` stands 41%.
